Data on one compound can be found in patent publication US7122173B2, “Agent for the treatment of bladder irritative symptoms accompanied by benign prostatic hyperplasia” (Kyowa Hakko Kogyo Co., Ltd., priority 2001, dated 2006).

Each structure is given as a SMILES string.

Test [1] relates to slowly-inactivating A-type K^+ channel. Put plainly: Voltage clamp, slowly-inactivating A-type K+ currents in Fast Blue-labeled capsaicin-sensitive bladder afferent neurons. The class given is cell-based, rat. As to conditions: Compound 1 1.0 × 10^−6 mol/L. The method, then: Experiments were performed on adult female Sprague Dawley rats. First and second series of the experiments were performed, respectively, in unidentified DRG neurons and a specific population of DRG neurons innervating the urinary bladder. The population of DRG neurons that innervate the urinary bladder were labeled by retrograde axonal transport of the fluorescent dye, Fast Blue (4% w/v) (Polyloy, Gross Umstadt, Germany), injected into the wall of the bladder in halothane-anesthetized animals 7 days before the dissociation. The dye was injected with a 28 gauge needle at three to six sites on the dorsal surface of the organ (5–6 μL per site, total volume of 20–30 μL). Each injection site was washed with saline to minimize contamination of adjacent organs with the dye.
Freshly dissociated neurons from DRG were prepared from halothane-anesthetized animals. […]
Dye-labeled primary afferent neurons that innervate the urinary bladder were identified using an inverted phase-contrast microscope (Nikon, Tokyo, Japan) with fluorescent attachments (UV-1A filter; excitation wavelength, 365 nm). […] All recordings were made with an Axopatch-1D patch-clamp amplifier (Axon Instruments, Foster City, Calif.), and data were acquired and analyzed by PCLAMP software (Axon Instruments).
In voltage-clamp recordings, outward K^+ currents and inward Na^+ currents were measured. […]

A further test deals with DRG cells. The experiment in a line: Current clamp, changes in membrane potential in DRG cells. As to conditions: control (0 mol/L) −47.95 ± 0.22. Type of test: cell-based, rat. The method, then:
Experiments were performed on adult female Sprague Dawley rats. A […] population of DRG neurons that innervate the urinary bladder were labeled by retrograde axonal transport of the fluorescent dye, Fast Blue (4% w/v) (Polyloy, Gross Umstadt, Germany) injected into the wall of the bladder in halothane-anesthetized animals 7 days before the dissociation. The dye was injected with a 28 gauge needle at three to six sites on the dorsal surface of the organ (5–6 μL per site, total volume of 20–30 μL). Each injection site was washed with saline to minimize contamination of adjacent organs with the dye.
Freshly dissociated neurons from DRG were prepared from halothane-anesthetized animals. L6 and S1 DRG were dissected from animals and then dissociated in a shaking bath for 25 minutes at 35° C. with 5 mL DMEM (Sigma) containing 0.3 mg/mL trypsin (Type 3, Sigma), 1 mg/mL collagenase (Type 1, Sigma), and 0.1 mg/ML deoxyribonuclease (Type 4, Sigma). Trypsin inhibitor (Type 2a, Sigma) was then added thereto to neutralize the activity of trypsin. Individual DRG cell bodies were isolated by trituration and then plated on a poly-L-lysine-coated 35 mm Petri dishes.
Dye-labeled primary afferent neurons that innervate the urinary bladder were identified using an inverted phase-contrast microscope (Nikon, Tokyo, Japan) with fluorescent attachments (UV-1A filter; excitation wavelength, 365 nm). Gigaohm-seal whole-cell recordings were performed within 6–8 hours after cell dissociation at room temperature (20–22° C.) on each labeled neuron in a culture dish that usually contained three to seven labeled cells among a few hundred unlabeled neurons. The internal solution contained (in mmol/L): KCl 140, CaCl2 1, MgCl2 2, EGTA 11, HEPES 10, Mg-ATP 2, and Tris-GTP 0.4 adjusted to pH 7.4 with KOH. Patch electrodes had resistances of 1–4 M Ω when filled with the internal solution. Neurons were superfused at a flow rate of 1.5 mL/minutes with an external solution containing (in mmol/L): NaCl 150, KCl 5, CaCl2 2.5, MgCl2 1, HEPES 10, and D-glucose 10, adjusted to pH 7.4 with NaOH. All recordings were made with an Axopatch-1D patch-clamp amplifier (Axon Instruments, Foster City, Calif.), and data were acquired and analyzed by PCLAMP software (Axon Instruments).
In current-clamp recordings, membrane potential of DRG cell were measured before and after compound applications. The membrane potentials were normalized to control (before addition of the compound).

Regarding `C[C@](O)(C(=O)Nc1cccc2c1C(=O)c1sccc1CS2(=O)=O)C(F)(F)F` [Compound 1, (S)-(+)-N-(5,5-dioxido-10-oxo-4,10-dihydrothieno[3,2-c][1]benzothiepin-9-yl)-3,3,3-trifluoro-2-hydroxy-2-methylpropanamide], the “A-type IK (HP: −120 mV) − (HP: −40 mV), normalized to control” value in test [1] stood at 1.26 ± 0.03. For the same compound, the Membrane potential in the test on DRG cells (Compound 1 1.0 × 10^−6 mol/L) is given as −53.67 ± 0.74 mV; in the test with DRG cells (Compound 1 1.0 × 10^−7 mol/L), −57.17 ± 0.53 mV; in the test on DRG cells (Compound 1 1.0 × 10^−8 mol/L) it was −49.80 ± 0.65 mV; in the test on DRG cells (Compound 1 1.0 × 10^−9 mol/L) it was −48.10 ± 0.48 mV; in the test with DRG cells (Compound 1 5.0 × 10^−4 mol/L), −42.67 ± 1.46 mV; with DRG cells (Compound 1 5.0 × 10^−5 mol/L) it was −48.50 ± 1.28 mV. The Membrane potential with DRG cells (Compound 1 5.0 × 10^−6 mol/L) is on record as −50.50 ± 0.88 mV.
